Structures can show the parent of a compound that is named as a salt.

In general, melting point refers to the temperature, or range, at which the solid turns liquid. `COc1ccccc1S[C@H](c1cccc(F)c1)[C@H]1CNCCO1` (single isomer, unassigned) (as salt: hydrochloride) [Example 13] yielded a melting point of 233 to 234 °C.
With `Fc1cccc([C@@H](Sc2ccccc2Cl)[C@H]2CNCCO2)c1` (single isomer, unassigned) (as salt: hydrochloride) [Example 15] the figure was 183 to 187 °C.
With `COc1ccccc1S[C@H](c1ccc(Cl)cc1)[C@H]1CNCCO1` (single isomer, unassigned) (as salt: hydrochloride) [Example 12] the figure was 238 to 241 °C; with `CCOc1ccccc1S[C@H](c1cccc(F)c1)[C@H]1CNCCO1` (single isomer, unassigned) (as salt: hydrochloride) [Example 14], 211 to 215 °C.
